This note sets out measurements from patent US11084800B2 (Achillion Pharmaceuticals, Inc., priority 2017, dated 2021).

Where two headings read alike, the source gives them in different places.

This assay addresses Human Factor D (Homo sapiens (Human), UniProt P00746). Kind of assay: Human Factor D Assay. In kind it is biochemical. An outline of the steps:
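Serum-purified Factor D (80 nM final) preincubated 5 min at room temperature with compound in 50 mM Tris, 1 M NaCl, pH 7.5. Z-L-Lys-SBz and DTNB added at 100 μM each; A405 followed every 30 s for 30 min. IC50 from nonlinear regression of rates versus concentration.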

Setting [1] is: Factor D inhibition, assay of Example 10, read-out: IC5 (Stars).
Where [2] appears, read: Table 8, Factor D 80 nM, substrate Z-L-Lys-SBz, read-out: IC50.

Chain of Human Factor D (P00746 26-253): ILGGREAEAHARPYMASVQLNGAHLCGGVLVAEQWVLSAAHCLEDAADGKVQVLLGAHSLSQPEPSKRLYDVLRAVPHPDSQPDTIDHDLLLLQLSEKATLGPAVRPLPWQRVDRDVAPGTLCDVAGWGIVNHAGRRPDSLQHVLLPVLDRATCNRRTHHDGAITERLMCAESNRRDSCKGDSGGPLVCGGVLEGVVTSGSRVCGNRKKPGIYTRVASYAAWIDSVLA

For the compound `CC(=O)c1nn(CC(=O)N2[C@H]3C[C@@]3(CC#N)C[C@H]2C(=O)Nc2nc(Br)ccc2C)c2cnc(-c3cnc(C)nc3)cc12` [Compound 239, (1S,3S,5S)-2-(2-(3-acetyl-5-(2-methylpyrimidin-5-yl)-1H-pyrazolo[3,4-c]pyridin-1-yl)acetyl)-N-(6-bromo-3-methylpyridin-2-yl)-5-(cyanomethyl)-2-azabicyclo[3.1.0]hexane-3-carboxamide], the IC50 under setting [1] lay in the range of 1000 to 10000 nM. Same read-out and setting: then `CC(=O)c1nn(CC(=O)N2[C@@H](C(=O)Nc3nc(Br)ccc3C)C[C@]3(CC#N)C[C@H]23)c2cnc(-c3cnc(C)nc3)cc12` [Compound 240, (1S,3R,5S)-2-(2-(3-acetyl-5-(2-methylpyrimidin-5-yl)-1H-pyrazolo[3,4-c]pyridin-1-yl)acetyl)-N-(6-bromo-3-methylpyridin-2-yl)-5-(cyanomethyl)-2-azabicyclo[3.1.0]hexane-3-carboxamide], with 1000 to 10000 nM; and `CC(=O)c1nn(CC(=O)N2C[C@H]3C[C@H]3[C@H]2C(=O)Nc2nc(Br)ccc2C)c2c(C)nc(-c3cnc(C)nc3)cc12` [Compound 241, (1R,2S,5S)-3-(2-(3-acetyl-7-methyl-5-(2-methylpyrimidin-5-yl)-1H-pyrazolo[3,4-c]pyridin-1-yl)acetyl)-N-(6-bromo-3-methylpyridin-2-yl)-3-azabicyclo[3.1.0]hexane-2-carboxamide], with less than 1000 nM. As to `CC(=O)c1nn(CC(=O)N2[C@H](C(=O)Nc3nc(Br)ccc3C)C[C@@]3(C)C[C@@H]23)c2ccc(-c3cnc(CNC(=O)COCCOCCNC(=O)COCCOCCNC(=O)CC[C@H](NC(=O)CCCCCCCCCCCCCCCCC(=O)O)C(=O)O)nc3)cc12` [Compound 242], the IC50 under setting [2] is less than 1000 nM. Consider `CC(=O)c1nn(CC(=O)N2C[C@@]3(CC(c4ccccc4)=NO3)C[C@H]2C(=O)Nc2nc(Br)ccc2C)c2c(C)cc(-c3cnc(C)nc3)cc12` [Compound 243, (5S,8S)-7-(2-(3-acetyl-7-methyl-5-(2-methylpyrimidin-5-yl)-1H-indazol-1-yl)acetyl)-N-(6-bromo-3-methylpyridin-2-yl)-3-phenyl-1-oxa-2,7-diazaspiro[4.4]non-2-ene-8-carboxamide], for which, under setting [2], the IC50 lay in the range of 1000 to 10000 nM. The same measure, in the same setting: then `CC(=O)c1nn(CC(=O)N2CC3(CC(C4CCCCC4)=NO3)C[C@H]2C(=O)Nc2nc(Br)ccc2C)c2c(C)cc(-c3cnc(C)nc3)cc12` (stereo partly drawn) [Compound 244, (8S)-7-(2-(3-acetyl-7-methyl-5-(2-methylpyrimidin-5-yl)-1H-indazol-1-yl)acetyl)-N-(6-bromo-3-methylpyridin-2-yl)-3-cyclohexyl-1-oxa-2,7-diazaspiro[4.4]non-2-ene-8-carboxamide], with less than 1000 nM. On to `CC(=O)c1nn(CC(=O)N2[C@H](C(=O)Nc3nc(Br)ccc3C)C[C@@]3(CN4C[C@H]5CCC[C@H]5C4)C[C@@H]23)c2cnc(-c3cnc(C)nc3)cc12` [Compound 245, (1R,3S,5R)-2-(2-(3-acetyl-5-(2-methylpyrimidin-5-yl)-1H-pyrazolo[3,4-c]pyridin-1-yl)acetyl)-N-(6-bromo-3-methylpyridin-2-yl)-5-(((3aR,6a5)-hexahydrocyclopenta [c]pyrrol-2(1H)-yl)methyl)-2-azabicyclo[3.1.0]hexane-3-carboxamide], for which the IC50 under setting [1] was less than 1000 nM. The same measure, in the same setting: then `CC(=O)c1nn(CC(=O)N2[C@H](C(=O)Nc3nc(Br)ccc3C)C[C@@]3(CN4CC5(CCCC5)C4)C[C@@H]23)c2cnc(-c3cnc(C)nc3)cc12` [Compound 246, (1R,3S,5R)-5-(2-azaspiro[3.4]octan-2-ylmethyl)-2-(2-(3-acetyl-5-(2-methylpyrimidin-5-yl)-1H-pyrazolo[3,4-c]pyridin-1-yl)acetyl)-N-(6-bromo-3-methylpyridin-2-yl)-2-azabicyclo[3.1.0]hexane-3-carboxamide], with less than 1000 nM.
